Measurements published in patent US20250017888A1, “COMPOUNDS FOR TREATING DISEASES ASSOCIATED WITH HYALURONAN OVERPRODUCTION” (THE ROYAL VETERINARY COLLEGE, priority 2021, published 2025).

Columns and labels:
Format in all cases: cell-based
[1] = Alamar blue toxicity assay (FIG. 1); conditions: below concentrations of 100 μM
Description: (§1) The hyaluronan synthase activity (Prehm, P. and Schumacher, U., Biochem. Pharmacol. 2004, 68, 1401-1410), the cytotoxicity of the drugs (O'Brien, J. et al., Eur. J. Biochem. 2000, 267, 5421-5426), proteoglycan synthesis rate, hyaluronan (Prehm, P. J. Rheumatol., 2005, 32, 690-696) and proteoglycan (Bjornsson, S. Anal. Biochem. 1993, 210, 282-291) were determined as described. The effect of the prenylflavonoids on the MRP5 export rate was measured with fluorescein diacetate as described (Schulz, T., Schumacher, U., and Prehm, P., J Biol. Chem., 2007, 282, 20999-21004). The determination of the IC50 values on the phosphodiesterase 5 was performed according to the instructions of BPS Bioscience. The culture of bovine chondrocytes in alginate beads and of explants of bovine cartilage was described previously (Deiters, B. and Prehm, P. Arthritis Res. Ther., 2008, 10, R8; Prehm, P. J. Rheumatol. 2005, 32, 690-696). Osteoarthritic reactions were induced in chondrocytes growing in alginate beads by incubation with medium containing 10 ng/ml of II-17 for 6 days, and in cartilage explants with 10 ng/ml of II-17 and 5 ng/ml of II-1α. The supernatants were withdrawn and stored at −20° C. for later analysis. The explants were weighed and extracted with 1 ml of 4 M guanidinium-HCl for 72 hours at 4° C. The proteoglycan concentrations were determined in the extracts.
The toxicity was determined by the Alamar blue assay.

chondrosarcoma cells = experiment: Uptake of flavonoids into chondrosarcoma cells by intracellular fluorescence
Description: Confluent monolayers of chondrosarcoma cells on 96 well microtiter plates were incubated with 100 μM solutions of flavonoids in serum-free Quantum medium. Changes in fluorescence were monitored from the bottom of the wells at excitation and emission wavelengths of 340 nm and 450 nm for xanthohumol and at 440 nm and 530 nm for quercetin, respectively.
Flavonoids are weakly fluorescent in aqueous buffer, but greatly enhance the fluorescence in the presence of proteins (Sengupta, B. and Sengupta, P. K., Biochem. Biophys. Res. Commun., 2002, 299, 400-403). This property was used to follow the uptake of quercetin and xanthohumol into chondrosarcoma cells.

[2] = test system: bovine cartilage explants; experiment: Proteoglycan loss from interleukin activated bovine cartilage explants; conditions: Bos taurus; read-out: IC50 Inhibition of proteoglycan loss
Description: Cartilage explants were weighed (average wet weight: 20 mg) incubated in the absence and presence of IL-1 (2 ng/ml) and the inhibitors at various concentrations for 5 days. The tissues were extracted with 1.5 ml of a solution of 4 M guanidinium hydrochloride, 0.1 M ε-aminohexanoid acid, 5 mM benzamidine, 10 mM N-ethylmaleinimide, 0.5 mM phenylmethylsulfonyl fluoride for 3 days at 4° C. The solution was centrifuged for 5 min at 10.000 g and the proteoglycans were determined in the supernatant by the alcian blue method as described (Bjornsson, S., Anal. Biochem., 1993, 210, 282-291).
Bovine cartilage explants were incubated in the absence and presence of interleukin for stimulation of osteoarthritic reactions and the indicated concentrations of the xanthohumol-betaine (FIG. 6A), xanthohumol-prothiazole (FIG. 6B), quercetin-prothiazole (FIG. 6C), quercetin (FIG. 6D) and xanthohumol (FIG. 6E) for 5 days. The cartilage explants were weighed and the proteoglycan concentrations were determined in the cartilage explants (solid bars) and culture supernatants (open bars).

[3] = test system: hyaluronan export from chondrosarcoma cells; experiment: Inhibition of hyaluronan export / production in chondrosarcoma cells
Description: as §1
Chondrosarcoma cells were plated on a 96 well microtiter plate and in the presence of increasing flavonoid concentrations. After 2 days the concentration of hyaluronan was determined in the culture supernatant.

fibroblasts = experiment: Alamar blue staining of fibroblasts; conditions: Fibroblast
Description: as §1

[4] = test system: chondrosarcoma cells (SW1353); experiment: Alamar blue staining of chondrosarcoma; conditions: Homo sapiens
Description: as §1
Chondrosarcoma cells (SW1353 from the American Type Culture Collection) were grown in Dulbecco's medium supplemented with streptomycin/penicillin (100 units of each/ml), 10% foetal calf serum or in serum free Quantum medium supplemented with streptomycin/penicillin (100 units of each/ml), kanamycin (100 units/ml).

bovine cartilage slices = experiment: Collagen loss from cartilage explants (van Gieson staining); conditions: Il-1α, Il-1β and Il-17; 12.5 μM and 50 μM; 14 days
Description: Cartilage explants were incubated with and without a mixture of 10 ng/ml of II-1α, 10 ng/ml of II-1β and 25 ng/ml of II-17 for 14 days. The addition of the cytokines was repeated daily. The tissues were fixed with 3.7% paraformaldehyde for 24 hours, imbedded in paraffin and stained by the van Giesson method.
Cartilage explants were incubated with and without a mixture of 10 ng/ml of 11-17 and 5 ng/ml of II-1α for 14 days. The addition of the cytokines was repeated daily. The tissues were fixed with 3.7% paraformaldehyde for 24 hours, imbedded in paraffin and stained by the van Gieson method (van Gieson, 1. (1889) Laboratory notes of technical methods for the nervous system. New York Medical Journal 50, 57-60).
It is known that hyaluronan overproduction leads to collagen degradation from cartilage (Deiters, B. and Prehm, P., Arthritis Res. Ther., 2008, 10, R8; Prehm, P., J. Rheumatol., 2005, 32, 690-696). […] Therefore cartilage explants were incubated with a mixture of the osteoarthritis inducing […] II-1α, II-1β and II-17 with 12.5 μM and 50 μM of the prenylflavonoids for 14 days and collagen was stained by the van Giesson method.

## COc1cc(O)c(CC=C(C)C)c(O)c1C(=O)/C=C/c1ccc(O)cc1 [Xanthohumol, reference compound]
[1]
  toxicity in Alamar blue assay: not toxic
Chondrosarcoma cells
  uptake into chondrosarcoma cells (intracellular fluorescence): did not accumulate inside the cells
[2]
  IC50: 2.6 µM
[3]
  IC50: 19 µM
fibroblasts
  IC50: 55 µM
[4]
  IC50: 76 µM
Bovine cartilage slices
  protection of cartilage from collagen loss: effective at protecting the cartilage from collagen loss
